Test results reported in patent publication US20230027295A1, “FXIA INHIBITORS AND PREPARATION METHOD THEREFOR AND PHARMACEUTICAL USE THEREOF” (Shenzhen Salubris Pharmaceuticals Co., Ltd., priority 2019, published 2023).

Experiments:
[1] = biological target: T1, CYP3A4 (Homo sapiens, UniProt P08684); test: CYP enzyme inhibition in liver microsomes: CYP3A4; assay type: in vitro ADME; conditions: 0.2 mg/mL liver microsomes
T1 construct: Liver microsomes (150-donor, Corning, Cat. 452117; Lot; 38292), NADPH; tissue Corning 452117; host or cells: liver microsomes, 150-donor pool
Description: Example 55: Investigation of CYP Enzyme Inhibition by the Compounds of the Present Invention Liver microsomes (150-donor, Corning, Cat. 452117; Lot. 38292), NADPH. […] After pre-incubating for 8 min, 10 mM NADPH was added to start the reaction, and the final concentration of NADPH was 1 mM. After a period of incubation, an internal standard such as methanol was added to stop the reaction. The amount of substrate metabolites generated in each reaction well was detected. […]

[2] = biological target: T2, hKallikrein (Homo sapiens, UniProt P03952); test: Selectivity to coagulation factors: kallikrein; assay type: biochemical
T2 construct: purchased LOT180223
Description: Example 52: Investigation of the Selectivity of the Compounds of the Present Invention to Coagulation Factors
Enzyme: hFXa: Human Factor Xa: 71nkat. hFIIa: HT5146L. hFVIIa: Human Factor VIIa: hFVIIa 4591L. kallikrein: LOT180223.
kallikrein buffer: 50 mM Tris, 50 mM Mimidazole and 150 mM NaCl (pH 8.2).
10 mM test compound dissolved in 100% DMSO was diluted with 100% DMSO to 1000, 200, 40, 8, 1.6 μM. 98 μL of enzyme solution was added to each well of a 96-well plate, while 98 μL of buffer was added to the blank wells. 2 μL of compounds of different concentrations were added, while the blank and control wells were added with DMSO instead. They were mixed with a shaker, and incubated at 37° C. for 20 min.
The concentrations of hFXa and S-2222™ were FXa (1:28) and 800 μmol/L, respectively. The concentrations of hFIIa and S-2238™ were hFIIa (0.06 U/ml) and 500 μmol/L, respectively. The concentrations of hFVIIa and S-2288™ were hFVIIa (80 nM) and 1600 μmol/L, respectively. The concentrations of kallikrein and substrate were kallikrein (20 nM) and 1600 μmol/L, respectively.
Finally, 100 μL substrate was added to each well, and its absorbance was measured at 405 nm.

[3] = biological target: T3, CYP3A5 (Homo sapiens, UniProt P20815); test: CYP enzyme inhibition in liver microsomes: CYP3A5; assay type: in vitro ADME; conditions: 0.2 mg/mL liver microsomes
T3 construct: Liver microsomes (150-donor, Corning, Cat. 452117; Lot; 38292), NADPH; tissue Corning 452117; host or cells: liver microsomes, 150-donor pool
Description: (§1) Example 55: Investigation of CYP Enzyme Inhibition by the Compounds of the Present Invention Liver microsomes (150-donor, Corning, Cat. 452117; Lot. 38292), NADPH. A 0.2 mg/mL microsome system was prepared, each test substance and substrate were added, and the final concentration of the test substance was 50 μM. After pre-incubating for 8 min, 10 mM NADPH was added to start the reaction, and the final concentration of NADPH was 1 mM. After a period of incubation, an internal standard such as methanol was added to stop the reaction. The amount of substrate metabolites generated in each reaction well was detected. Data processing: Taking the metabolite generation in the blank well as 100%, the reduction of metabolite generation in each well of the test substance was calculated, and the inhibition rate was calculated.

[4] = biological target: T4, CYP2D6 (Homo sapiens, UniProt P10635); test: CYP enzyme inhibition in liver microsomes: CYP2D6; assay type: in vitro ADME; conditions: 0.2 mg/mL liver microsomes
T4 construct: Liver microsomes (150-donor, Corning, Cat. 452117; Lot; 38292), NADPH; tissue Corning 452117; host or cells: liver microsomes, 150-donor pool
Description: as §1

[5] = biological target: T5, hERG (Homo sapiens, UniProt Q12809); test: hERG current in HEK293-hERG stably transfected cells; assay type: cell-based; conditions: human, HEK293 cells stably transfected with hERG; at 10 μM; read-out: hERG peak current inhibition
T5 construct: host or cells: HEK293
Description: (§2) Example 56: Investigation on hERG of the Compound of the Present Invention
(§3) HEK293-hERG stably transfected cell line (invitrogen). DMEM medium (Gibco), HEPES (invitrogen), Blasticidin (invitrogen)
(§4) HEK293-hERG stably transfected cells were used for experiments when they were cultured to a degree of polymerization of 40%-80%. First, a blank solvent was applied to the cells to establish a baseline. […] In the presence of test compounds, hERG currents were recorded for approximately 5 minutes to reach a steady state, and then 5 sweep frequencies were captured. To ensure good performance of cultured cells and manipulations, the same batch of cells was also tested using the positive control dofetilide.
(§5) Peak current inhibition=(1−Peak tail current compound/Peak tail current vehicle)*100

[6] = biological target: T6, hERG current (Homo sapiens, UniProt Q12809); test: as above; assay type: cell-based; conditions: HEK293-hERG cells
T6 construct: host or cells: HEK293
Description: as §2, §3, §4, §5

[7] = biological target: T7, CYP2B6 (Homo sapiens, UniProt P20813); test: CYP enzyme inhibition in liver microsomes: CYP2B6; assay type: in vitro ADME; conditions: 0.2 mg/mL liver microsomes
T7 construct: Liver microsomes (150-donor, Corning, Cat. 452117; Lot; 38292), NADPH; tissue Corning 452117; host or cells: liver microsomes, 150-donor pool
T7 sequence (P20813 1-491): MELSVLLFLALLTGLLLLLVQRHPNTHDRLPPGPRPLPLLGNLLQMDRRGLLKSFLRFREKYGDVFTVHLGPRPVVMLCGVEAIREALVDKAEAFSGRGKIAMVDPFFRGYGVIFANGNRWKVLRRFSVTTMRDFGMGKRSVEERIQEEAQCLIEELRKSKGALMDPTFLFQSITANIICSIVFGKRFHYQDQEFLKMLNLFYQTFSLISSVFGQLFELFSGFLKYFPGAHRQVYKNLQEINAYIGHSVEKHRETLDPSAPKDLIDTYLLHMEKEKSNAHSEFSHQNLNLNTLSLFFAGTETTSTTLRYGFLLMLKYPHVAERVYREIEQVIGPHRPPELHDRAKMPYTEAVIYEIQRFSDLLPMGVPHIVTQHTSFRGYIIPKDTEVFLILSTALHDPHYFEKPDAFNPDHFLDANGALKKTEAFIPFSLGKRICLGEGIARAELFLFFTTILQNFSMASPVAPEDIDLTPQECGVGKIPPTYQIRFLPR
Description: as §1

[8] = biological target: T8, CYP1A2 (Homo sapiens, UniProt P05177); test: CYP enzyme inhibition in liver microsomes: CYP1A2; assay type: in vitro ADME; conditions: 0.2 mg/mL liver microsomes
T8 construct: Liver microsomes (150-donor, Corning, Cat. 452117; Lot; 38292), NADPH; tissue Corning 452117; host or cells: liver microsomes, 150-donor pool
T8 sequence (P05177 1-516): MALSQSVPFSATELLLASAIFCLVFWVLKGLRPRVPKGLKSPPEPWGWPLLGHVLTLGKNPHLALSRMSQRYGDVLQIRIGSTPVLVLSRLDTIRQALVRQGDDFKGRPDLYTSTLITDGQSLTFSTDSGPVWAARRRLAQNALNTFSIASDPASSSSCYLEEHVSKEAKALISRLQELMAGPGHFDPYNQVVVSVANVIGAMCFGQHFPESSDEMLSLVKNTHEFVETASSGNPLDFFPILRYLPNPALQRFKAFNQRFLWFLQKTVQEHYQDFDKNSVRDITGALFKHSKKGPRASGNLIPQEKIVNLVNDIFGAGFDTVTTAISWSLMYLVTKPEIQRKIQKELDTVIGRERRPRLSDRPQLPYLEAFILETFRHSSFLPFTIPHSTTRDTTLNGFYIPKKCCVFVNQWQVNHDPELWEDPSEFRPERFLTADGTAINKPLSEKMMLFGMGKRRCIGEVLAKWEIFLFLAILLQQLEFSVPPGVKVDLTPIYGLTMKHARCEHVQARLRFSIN
Description: as §1

T2 sequence (P03952 391-638 limits assumed): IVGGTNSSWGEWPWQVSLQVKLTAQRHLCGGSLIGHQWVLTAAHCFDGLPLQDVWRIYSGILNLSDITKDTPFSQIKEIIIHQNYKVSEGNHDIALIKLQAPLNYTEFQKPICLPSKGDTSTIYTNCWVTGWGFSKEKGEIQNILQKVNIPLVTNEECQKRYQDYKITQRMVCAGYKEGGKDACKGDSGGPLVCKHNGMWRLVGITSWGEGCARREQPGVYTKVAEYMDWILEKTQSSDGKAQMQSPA
T2 sequence (P03952 20-390 partner limits assumed): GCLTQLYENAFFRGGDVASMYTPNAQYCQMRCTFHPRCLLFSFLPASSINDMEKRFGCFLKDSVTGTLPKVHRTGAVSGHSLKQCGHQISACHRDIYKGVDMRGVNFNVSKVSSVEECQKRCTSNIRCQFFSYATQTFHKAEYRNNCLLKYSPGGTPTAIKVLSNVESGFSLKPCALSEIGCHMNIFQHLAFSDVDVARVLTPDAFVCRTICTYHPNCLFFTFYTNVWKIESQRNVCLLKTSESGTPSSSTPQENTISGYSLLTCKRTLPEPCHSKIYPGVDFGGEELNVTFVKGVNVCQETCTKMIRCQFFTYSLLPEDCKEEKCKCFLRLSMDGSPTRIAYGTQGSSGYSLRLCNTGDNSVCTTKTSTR
T3 sequence (P20815 whole entry): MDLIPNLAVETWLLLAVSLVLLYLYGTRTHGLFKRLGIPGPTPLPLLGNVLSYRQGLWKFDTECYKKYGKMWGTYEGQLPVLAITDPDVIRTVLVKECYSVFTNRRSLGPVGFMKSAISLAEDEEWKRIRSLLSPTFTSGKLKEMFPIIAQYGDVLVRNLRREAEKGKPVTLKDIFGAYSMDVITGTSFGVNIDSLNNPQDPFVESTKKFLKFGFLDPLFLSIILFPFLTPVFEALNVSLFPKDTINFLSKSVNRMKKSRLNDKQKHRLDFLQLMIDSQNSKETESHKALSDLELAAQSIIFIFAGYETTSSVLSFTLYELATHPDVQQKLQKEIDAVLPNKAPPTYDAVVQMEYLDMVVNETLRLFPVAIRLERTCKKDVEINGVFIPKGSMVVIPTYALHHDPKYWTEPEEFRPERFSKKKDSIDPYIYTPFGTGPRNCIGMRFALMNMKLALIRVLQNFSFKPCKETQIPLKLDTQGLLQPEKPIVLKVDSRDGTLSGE
T6 sequence (Q12809 whole entry): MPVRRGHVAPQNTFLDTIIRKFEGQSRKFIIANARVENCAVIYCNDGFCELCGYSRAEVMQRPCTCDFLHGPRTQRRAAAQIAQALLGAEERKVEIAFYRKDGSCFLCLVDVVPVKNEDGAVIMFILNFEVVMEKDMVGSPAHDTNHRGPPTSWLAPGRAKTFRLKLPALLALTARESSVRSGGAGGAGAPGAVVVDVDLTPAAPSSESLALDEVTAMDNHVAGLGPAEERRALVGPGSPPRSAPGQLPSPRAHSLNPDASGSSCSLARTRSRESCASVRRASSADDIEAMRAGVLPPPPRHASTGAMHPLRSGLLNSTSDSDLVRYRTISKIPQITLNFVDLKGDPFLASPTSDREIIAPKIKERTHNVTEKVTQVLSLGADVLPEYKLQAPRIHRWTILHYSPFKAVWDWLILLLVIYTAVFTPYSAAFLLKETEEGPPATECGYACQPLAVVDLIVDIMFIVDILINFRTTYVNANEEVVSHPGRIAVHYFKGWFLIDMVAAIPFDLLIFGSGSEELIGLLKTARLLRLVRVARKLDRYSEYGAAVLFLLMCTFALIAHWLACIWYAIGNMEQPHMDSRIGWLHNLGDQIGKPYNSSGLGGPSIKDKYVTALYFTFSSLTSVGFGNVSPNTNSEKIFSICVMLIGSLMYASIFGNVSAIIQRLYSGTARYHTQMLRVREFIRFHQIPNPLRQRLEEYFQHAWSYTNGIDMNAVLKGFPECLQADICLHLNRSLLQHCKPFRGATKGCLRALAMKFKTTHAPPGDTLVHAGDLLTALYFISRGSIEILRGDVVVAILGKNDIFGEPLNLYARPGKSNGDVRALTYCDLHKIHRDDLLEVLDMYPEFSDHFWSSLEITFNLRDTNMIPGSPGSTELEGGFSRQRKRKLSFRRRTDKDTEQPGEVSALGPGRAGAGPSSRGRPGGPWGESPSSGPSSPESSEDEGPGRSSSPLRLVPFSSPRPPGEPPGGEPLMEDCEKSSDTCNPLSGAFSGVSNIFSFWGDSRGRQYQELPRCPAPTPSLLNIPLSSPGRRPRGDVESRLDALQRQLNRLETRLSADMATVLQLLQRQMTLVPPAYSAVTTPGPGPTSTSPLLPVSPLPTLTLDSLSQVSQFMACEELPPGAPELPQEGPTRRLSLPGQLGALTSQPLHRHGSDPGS
T5 sequence (Q12809 whole entry): as above
T1 sequence (P08684 whole entry): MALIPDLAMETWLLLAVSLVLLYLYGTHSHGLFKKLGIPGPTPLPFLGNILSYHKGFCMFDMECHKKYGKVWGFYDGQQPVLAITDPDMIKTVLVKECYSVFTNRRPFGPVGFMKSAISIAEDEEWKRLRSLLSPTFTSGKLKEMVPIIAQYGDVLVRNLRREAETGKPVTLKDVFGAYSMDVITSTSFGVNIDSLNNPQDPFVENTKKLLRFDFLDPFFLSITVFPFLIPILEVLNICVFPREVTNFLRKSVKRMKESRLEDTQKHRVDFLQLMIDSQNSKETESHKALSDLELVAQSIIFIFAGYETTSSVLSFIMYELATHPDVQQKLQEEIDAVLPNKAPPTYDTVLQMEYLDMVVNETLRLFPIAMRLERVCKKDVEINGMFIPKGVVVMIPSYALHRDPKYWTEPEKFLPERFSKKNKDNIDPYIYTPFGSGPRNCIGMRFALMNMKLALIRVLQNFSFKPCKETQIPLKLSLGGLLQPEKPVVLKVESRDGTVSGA
T4 sequence (P10635 whole entry): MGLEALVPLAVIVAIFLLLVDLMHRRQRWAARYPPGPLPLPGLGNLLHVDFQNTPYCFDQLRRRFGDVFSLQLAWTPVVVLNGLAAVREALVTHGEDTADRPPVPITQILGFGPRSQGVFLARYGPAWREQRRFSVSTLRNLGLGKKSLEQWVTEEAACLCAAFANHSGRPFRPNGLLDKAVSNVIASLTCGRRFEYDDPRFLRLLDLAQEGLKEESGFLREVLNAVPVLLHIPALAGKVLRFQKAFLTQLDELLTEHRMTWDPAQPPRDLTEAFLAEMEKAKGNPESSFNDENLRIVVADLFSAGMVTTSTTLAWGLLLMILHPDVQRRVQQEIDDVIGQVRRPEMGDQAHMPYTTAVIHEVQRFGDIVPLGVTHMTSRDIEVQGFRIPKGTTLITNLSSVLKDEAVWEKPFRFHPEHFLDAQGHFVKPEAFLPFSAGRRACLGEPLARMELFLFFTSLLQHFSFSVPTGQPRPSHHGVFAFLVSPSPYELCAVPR

IC50 [1] | IC50 [2] | IC50 [3] | IC50 [4] | IC50 [7] | IC50 [8] | SMILES | inhibition at 5 min, 10 µM [5] | IC50 [6]
> 50 µM | 0.524 ± 0.0602 µM | > 50 µM | > 50 µM | > 50 µM | > 50 µM | COc1nn([C@@H](Cc2ccccc2)C(=O)Nc2ccc(C(=O)O)cc2)c(=O)cc1-c1cc(Cl)ccc1C(C)=O [Example 19, (S)-4-(2-(4-(2-acetyl-5-chlorophenyl)-3-methoxy-6-oxopyridazin-1(6H)-yl)-3-phenylpropanamido)benzoic acid] | 1.17% | > 10 µM
> 50 µM | 0.103 ± 0.0149 µM | > 50 µM | > 50 µM | > 50 µM | > 50 µM | CCC(=O)c1ccc(Cl)cc1-c1cc(=O)n([C@@H](Cc2ccccc2)C(=O)Nc2ccc(C(=O)O)cc2)nc1OC [Example 32] | 2.8% | > 10 µM
